Bridges are numbered along the chain shown (N, C = ends). Where no end group is shown, it is not given here.
Legend:
CXCR7 = assay: Anti-CXCR7 antibody (clone 11G8) binding in CXCR7 overexpressing cells; design: species or system human; details: MCF-7 cells; peptides 10 µM, CXCL11 100 nM, 30 min pre-incubation; Figure S3
Protocol: [The procedure below names another target; the source says it served here with some conditions changed.] CXCR4 binding was evaluated as previously described. Briefly 5×10^5 CCRF–CEM cells were pre-incubated with 10 µM peptides or AMD3100 in binding buffer (PBS 1× plus 0.2% BSA and 0.1% NaN3) for 30 minutes at 37°C, 5% CO2 and then labeled for 30 minutes with anti-CXCR4 PE-antibody (FAB170P, clone 12G5, R&D Systems, Minneapolis, MN, USA). The cells were analyzed by FACS Canto II cytofluorometer (Becton Dickinson Immunocytometry Systems, Mountain View, CA, USA).
Fluo-3AM and Pluronic acid were added to each sample to increase Fluo-3AM solubility and improve dye loading into the cells. (TIF) Click here for additional data file.

[1] = test system: CCRF-CEM human T-Leukemia cells; assay: CCRF-CEM cell migration; format: cell-based; details: Figure S4
Protocol: [The procedure below names another cell line; the source lists this cell line under the same test.] Migration was assayed in 24-well Transwell chambers (Corning Inc., Corning, NY) using inserts with an 8-µm pore membrane. Membranes were precoated with collagen (human collagen type I/III) and fibronectin (20 µg/mL each). PES43 cells were placed in the upper chamber (2.5×10^5 cells/well) in IMDM containing 1% BSA (migration media) in the presence of AMD3100 or peptides; 100 ng/mL CXCL12 was added to the lower chamber. After 16 h incubation, cells on the upper surface of the filter were removed using a cotton wool swab; migration of cells in migration media alone was compared with migration in media containing CXCL12. The cells were counted in ten different fields (original magnification ×40). The migration index was defined as the ratio between migrating cells in the experimental group and migrated cells in the control group. For the wound closure assay, tested cells were allowed to reach confluence in six-well plates containing serum-depleted growth medium and scratched with pipette tips to make wounds. The wound closure was observed microscopically 6 hours post-wounding (OKO Time Lapse).
(TIF) Click here for additional data file.

Row | Substance | binding to CXCR7 (anti-CXCR7 antibody) (CXCR7) | CCRF-CEM migration [1]
1 | [Cys-Trp-His-Arg-Cys] (CWHRC; disulfide 1-5) [Peptide I, v-MIP-II mimetic disulfide-cyclic peptide] | unaffected | –
2 | Arg-Ala-[Cys-Arg-Phe-Phe-Cys] (RACRFFC; disulfide 3-7) [Peptide R, CXCL12-mimetic disulfide-cyclic peptide] | unaffected | inhibited CCRF-CEM human T-Leukemia cells migration in a dose-dependent manner
3 | Arg-Ala-[Cys-Arg-His-Trp-Cys] (RACRHWC; disulfide 3-7) [Peptide S, CXCL12-mimetic disulfide-cyclic peptide] | unaffected | –

— article PMC3772838, “Preclinical Development of a Novel Class of CXCR4 Antagonist Impairing Solid Tumors Growth and Metastases” (PLoS ONE, 2013)
